Assays:
[1] = test system: myosin heavy chain β (β-MHC); conditions: 48 h, 10 µM
Experimental: Separation and plating of cardiomyocytes of rats: a certain number of SPF suckling rats were taken and placed in a clean bench according to an actual requirement for the number of cells, thoracic cavities were opened by scissors, hearts were separated, and the hearts were cut into tissue fragments with sterilized surgical scissors; Collagenase Type II (manufacturer: Sigma, article No.: C2-28-100MG) was added to a D-HANKS balanced salt buffer to prepare a 5 µg/mL enzyme digestion solution, and the tissue fragments of hearts were continuously digested for three times in a 37 °C constant-temperature water bath box; about 2 mL of the enzyme digestion solution was added for the first time, a supernatant was discarded after digestion, centrifugation and precipitation of cardiomyocytes and tissue fragments, about 4 mL of the enzyme digestion solution was independently added for the second time and the third time to continue digestion, a supernatant was remained each time, DMEM containing 10% FBS with the same volume as the digestion solution in the supernatant was immediately added to neutralize digestive enzymes, the supernatants for the second time and the third time were combined and centrifuged, a supernatant was discarded, an appropriate amount of DMEM containing 10% FBS was added to resuspend the cardiomyocytes, the cardiomyocytes were inoculated in a 100 mm culture plate and subjected to differential adhesion in a constant-temperature cell incubator for 2 h, and a supernatant was taken for cell count.
A 24-well plate precoated with 1% gelatin was taken and plated at 1×10^5 cells/well, 500 µL of a 10% FBS+DMEM medium was contained in each well, and cells were cultured in a 37 °C constant-temperature cell incubator for 24 h. Different compounds were independently prepared into a 100 mM mother liquor with DMSO and gradient diluted with a 10% FBS+DMEM medium to prepare a 10 µM final solution of the compound containing 0.5% DMSO. The medium in the 24-well plate was discarded and replaced with a 500 µL/well medium containing a 10 µM compound, and three replicate wells and a negative control well were set for each compound. After 0.5 hours of drug action, PE (manufacturer: Meilun Biotechnology; article No.: MB1602) with a final concentration of 20 µM was added to each well, and no PE was added to the negative control wells; after 48 hours of PE action, sample detection was performed.
Expression levels of genes related to cardiomyocyte hypertrophy was analyzed via real-time quantitative PCR detection of mRNA level of atrial natriuretic peptide (ANP) and myosin heavy chain β (β-MHC). The steps include extraction of total RNA of cells, reverse transcription synthesis of cDNA and real-time quantitative PCR assay.
Based on real-time quantitative PCR detection of an mRNA level of ANP of cardiomyocytes, a drug with a potential of anti-cardiomyocyte hypertrophy was preliminarily screened and verified with an mRNA level of another hypertrophy gene β-MHC using a statistical method One-way ANOVA and statistical software GraphPad Prism.

[2] = test system: Primary cardiomyocytes of suckling rats; experiment: Area measurement of cardiomyocytes after PE injury; assay type: cell-based; conditions: for Cell Area Hypertrophy Multiple (Mean±Standard Deviation) Compared with Control Wells: 48 h, 10 µM; for cardiomyocyte area compared with the PE group (result in words): 10 µM compound, PE 20 µM for 48 hours
Experimental: Primary cardiomyocytes of suckling rats were isolated and cultured and inoculated on a cell culture plate. A drug stock solution was taken and separately added to cell wells according to a certain dilution ratio, and a final concentration was 10 µM. After half hour of drug action, a phenylephrine (PE) stock solution was added, and a final concentration of PE was 20 µM. After 48 hours of PE action, cell samples were collected for real-time quantitative PCR assay or cell area measurement.
Separation and plating of cardiomyocytes of rats: a certain number of SPF suckling rats were taken and placed in a clean bench according to an actual requirement for the number of cells, thoracic cavities were opened by scissors, hearts were separated, and the hearts were cut into tissue fragments with sterilized surgical scissors; Collagenase Type II (manufacturer: Sigma, article No.: C2-28-100MG) was added to a D-HANKS balanced salt buffer to prepare a […] enzyme digestion solution, and the tissue fragments of hearts were continuously digested for three times in a 37 °C constant-temperature water bath box; about 2 mL of the enzyme digestion solution was added for the first time, a supernatant was discarded after digestion, centrifugation and precipitation of cardiomyocytes and tissue fragments, about 4 mL of the enzyme digestion solution was independently added for the second time and the third time to continue digestion, a supernatant was remained each time, DMEM containing 10% FBS with the same volume as the digestion solution in the supernatant was immediately added to neutralize digestive enzymes, the supernatants for the second time and the third time were combined and centrifuged, a supernatant was discarded, an appropriate amount of DMEM containing 10% FBS was added to resuspend the cardiomyocytes, the cardiomyocytes were inoculated in a 100 mm culture plate and subjected to differential adhesion in a constant-temperature cell incubator for 2 h, and a supernatant was taken for cell count.
Area measurement of cardiomyocytes of rats: a 24-well plate precoated with 1% gelatin was taken and plated at 1.0×10^3 cells/well, 500 µL of a 10% FBS+DMEM medium was contained in each well, and cells were cultured in a 37 °C constant-temperature cell incubator for 24 h; different compounds were independently prepared into a 100 mM mother liquor with DMSO and gradient diluted with a 10% FBS+DMEM medium to prepare a 10 µM final solution of the compound containing […]; the medium in the 24-well plate was discarded and replaced with a 500 µL/well medium containing a 10 µM compound, and three replicate wells and a negative control well were set for each compound; after 0.5 hours of drug action, PE (manufacturer: Meilun Biotechnology; article No.: MB1602) with a final concentration of 20 µM was added to each well, and no PE was added to the negative control wells; after 48 hours of PE action, at least five fields of view were randomly selected from each well under an inverted microscope (manufacturer: Nikon; model: Eclipse TS100), and the cell area data was calculated by Image J software; the area of the cells in the negative control wells was set to 1, the cell area hypertrophy multiples of the PE wells and each administration well were calculated separately, and statistical analysis was performed using the One-Way ANOVA method.
The cardiomyocyte area was directly measured and the differences between the groups were compared for verification. The cardiomyocytes were co-intervened with PE and drugs and placed under a microscope for direct observation, and images were taken. The cell area data was calculated using Image J software. […]

[3] = test system: Models of Heart Failure due to Pressure Overload of Mice; experiment: Pharmacodynamic test in mouse models of heart failure due to pressure overload (thoracic aorta ligation); assay type: in vivo, C57BL/6 mice; conditions: after four weeks of administration (nine weeks of modeling); for Ejection Fraction (Mean) of Ventriculus Sinister of Heart: Table 5, model group 28.6%; for Ejection Fraction (Mean) of Ventriculus Sinister of Heart / Ejection Fraction (Mean) of Heart: 5 mg/kg intraperitoneal once a day for four consecutive weeks; for effect on the cardiac contractile function (result in words): 5 mg/kg intraperitoneal once a day; for Ejection Fraction (Mean) of Heart: Table 6, model group 29.8%
Experimental: 1.1 Animals healthy C57BL/6 mice
Modeling by thoracic aorta ligation surgery: preoperative echocardiography was performed to exclude mice with abnormal cardiac functions; for mice with normal cardiac functions, anesthesia was performed, and the mice were anesthetized and then transferred into a small animal operating table and fixed; an open airway was established via endotracheal intubation, and anesthesia was maintained; taking the second rib as the center, the skin was cut along the sternum toward the first and third ribs to expose the connection between the second rib and the sternum; the second rib was cut to expose the aorta thoracic segment; the aortic arch was freed, a thin thread was inserted underneath, a thin needle was placed in parallel to the aortic arch for co-ligation; after ligation, the thin needle was withdrawn to observe the condition of the mice, and the mice were sutured layer by layer after stabilization; the mice were placed on the thermal insulation pad to keep warm, and after waking up, the mice were put back into the cage for daily feeding according to the activity.
After five weeks of modeling, echocardiography was performed on the mice to determine the ejection fractions of the hearts of the mice. When the ejection fraction decreased by about 50%, the ejection fraction met the experimental requirements, and the administration experiment started. Animals were grouped randomly and administered according to the ultrasound data, the echocardiography was performed every two weeks until week 9 ended, and pathological section analysis was performed.
The results were expressed using mean±standard error, data analysis was performed using GraphPad Prism statistical software, and the comparison was analyzed using a t-test. P < 0.05 was determined that there was a difference with statistical significance, otherwise P was determined that there was no significant difference.

SMILES | Mean (real-time quantitative PCR validation results of cardiomyocyte β-MHC) [1] | Cell Area Hypertrophy Multiple (Mean±Standard Deviation) Compared with Control Wells [2] | Ejection Fraction (Mean) of Ventriculus Sinister of Heart [3] [%] | cardiomyocyte area compared with the PE group (result in words) [2] | effect on the cardiac contractile function (result in words) [3] | Ejection Fraction (Mean) of Heart [3] [%]
Cc1nc2cc(-c3cc(F)ccc3O)ccc2[nH]1 [Formula I-1, 4-fluoro-2-(2-methyl-1H-benzimidazol-5-yl)phenol] | 1.21 | 1.42±0.16 | 37.2 | – | – | –
Cc1nc2cc(-c3cc(F)cc(F)c3O)ccc2[nH]1 [Formula I-2, 2,4-difluoro-6-(2-methyl-1H-benzimidazol-5-yl)phenol] | 1.21 | 1.18±0.16 | 38.3 | – | – | –
Cc1nc2cc(-c3cc(F)cc(C#N)c3O)ccc2[nH]1 [Formula I-3, 5-fluoro-2-hydroxy-3-(2-methyl-1H-benzimidazol-5-yl)benzonitrile] | 1.24 | 1.07±0.15 | 37.8 | – | – | –
Cc1nc2cc(-c3cc(C(N)=O)ccc3O)ccc2[nH]1 [Formula I-4, 4-hydroxy-3-(2-methyl-1H-benzimidazol-5-yl)benzamide] | 1.15 | 1.27±0.34 | 35.4 | – | – | –
Cc1nc2cc(-c3cc(C(N)=O)cc(F)c3O)ccc2[nH]1 [Formula I-5, 3-fluoro-4-hydroxy-5-(2-methyl-1H-benzimidazol-5-yl)benzamide] | 1.25 | 1.50±0.15 | 39.7 | – | – | –
Oc1ccc(F)cc1-c1ccc2[nH]cnc2c1 [Formula I-24, 4-fluoro-2-(1H-benzimidazol-5-yl)phenol] | – | 1.36±0.12 | 40.0 | – | – | –
COc1ccc(F)cc1-c1ccc2[nH]cnc2c1 [Formula I-24-A, 5-(5-fluoro-2-methoxyphenyl)-1H-benzimidazole, reference compound] | – | 1.77±0.11 | 29.4 | no apparent improvement effect | no apparent improvement effect | –
Cn1cnc2cc(-c3cc(F)ccc3O)ccc21 [Formula I-24-B, 4-fluoro-2-(1-methyl-1H-benzimidazol-5-yl)phenol, reference compound] | – | 1.81±0.20 | 27.2 | no apparent improvement effect | no apparent improvement effect | –
Oc1ccccc1-c1cc(F)c2[nH]cnc2c1 [Formula I-24-C, 2-(7-fluoro-1H-benzimidazol-5-yl)phenol, reference compound] | – | 1.95±0.08 | 30.7 | no apparent improvement effect | no apparent improvement effect | –
Cc1nc2cc(-c3cc(C(=O)O)ccc3O)ccc2[nH]1 [Formula I-48, 4-hydroxy-3-(2-methyl-1H-benzimidazol-5-yl)benzoic acid] | 1.58 | 1.06±0.08 | 37.2 | – | – | –
Cc1nc2cc(-c3cc(F)ccc3C(C)(C)O)ccc2[nH]1 [Formula II-1, 2-(4-fluoro-2-(2-methyl-1H-benzimidazol-5-yl)phenyl)propane-2-ol] | 1.32 | 1.39±0.30 | – | – | – | 38.7
Cc1nc2cc(-c3cc(F)cc(F)c3C(C)(C)O)ccc2[nH]1 [Formula II-2, 2-(2,4-difluoro-6-(2-methyl-1H-benzimidazol-5-yl)phenyl)propane-2-ol] | 1.42 | 1.33±0.11 | – | – | – | 37.3
Cc1nc2cc(-c3cc(F)cc(C#N)c3C(C)(C)O)ccc2[nH]1 [Formula II-3, 5-fluoro-2-(2-hydroxypropan-2-yl)-3-(2-methyl-1H-benzimidazol-5-yl)benzonitrile] | 1.28 | 1.28±0.10 | – | – | – | 40.1
Cc1nc2cc(-c3cc(C(=O)N(C)C)ccc3C(C)(C)O)ccc2[nH]1 [Formula II-7, 4-(2-hydroxypropan-2-yl)-N,N-dimethyl-3-(2-methyl-1H-benzimidazol-5-yl)benzamide] | 1.15 | 1.14±0.14 | – | – | – | 39.6
CCCc1cc(C#N)c(C(C)(C)O)c(-c2ccc3nc[nH]c3c2)c1 [Formula II-48] | – | 1.07±0.20 | – | – | – | 41.4
CC(O)c1ccc(F)cc1-c1ccc2[nH]cnc2c1 (stereo not drawn) [Formula II-73, 1-(4-fluoro-2-(1H-benzimidazol-5-yl)phenyl)ethane-1-ol] | – | 1.17±0.16 | – | – | – | 40.5
CCCc1cc(C#N)c(C(C)O)c(-c2ccc3[nH]cnc3c2)c1 (stereo not drawn) [Formula II-96, 2-(1-hydroxyethyl)-3-(1H-benzimidazol-5-yl)-5-propylbenzonitrile] | 1.38 | 1.49±0.10 | – | – | – | 36.8
OCc1ccc(F)cc1-c1ccc2[nH]cnc2c1 [Formula II-121, (4-fluoro-2-(1H-benzimidazol-5-yl)phenyl)methanol] | 1.25 | 1.48±0.09 | – | – | – | 42.2
CCCc1cc(C#N)c(CO)c(-c2ccc3[nH]cnc3c2)c1 [Formula II-144, 2-(hydroxymethyl)-3-(1H-benzimidazol-5-yl)-5-propylbenzonitrile] | 1.39 | 1.12±0.13 | – | – | – | 41.5
